# Test results reported in patent EP4660190A1, “PHARMACEUTICALLY ACCEPTABLE SALT OF COMPOUND AND PREPARATION METHOD THEREFOR” (Jiangsu Chia Tai Fenghai Pharmaceutical Co., Ltd., priority 2023, dated 2024).
# Where “and” joins values, the source holds several entries; their conditions need not be identical. Equal values may be shown once. Read-outs that look alike come from different tables or passages of the source.
# What was measured:
# [1] = system: Middle cerebral artery occlusion (MCAO) models of SD rats; assay: Rat MCAO model, 7 daily doses, TTC staining cerebral infarction; format: in vivo
# Excerpt: Middle cerebral artery occlusion (MCAO) models of SD rats were constructed using the suture occlusion method to evaluate the neuroprotective effect of the compound on neurons of rats after cerebral ischemia-reperfusion. […] The ECA was ligated. The ICA was temporarily occluded. Sutures were threaded at both the proximal end and the distal end of CCA. The distal end was securely ligated, and a loosely tied knot was placed at the proximal end. A small incision was made on the CCA between these two sutures. […] The threading was halted temporarily when reaching the artery clamp of ICA. The pre-ligation suture was further tightened. The artery clamp blocking the blood flow in the ICA was removed, allowing the suture occlusion to be advanced into the ICA until it entered the intracranial region. […] The insertion was stopped at the moment, and the time was recorded. The artery clamp on the CCA was removed and the incision was closed after no active bleeding was observed. The ischemic rats were placed at room temperature to keep their body temperature at 37°C, and anesthesia induction could be carried out 120min later. The suture was slowly and gradually withdrawn when the rats were maintained under anesthesia, so that the proximal end of the suture returned to the ECA, thereby initiating reperfusion of the middle cerebral artery. […] A single dose was administered immediately after reperfusion (within 10 minutes), followed by one dose per day for a total of 7 consecutive doses (including the first dose). Except for the initial administration, all subsequent doses were given between 4:00 PM and 7:00 PM each day. […] Animals were euthanized 7 days after ischemia reperfusion, and the brains were rapidly taken, frozen, and dissected for TTC staining. The normal tissues were rose-red after staining, and the infarcted tissues were white. The infarct size (%) percentage, calculated as the weight of infarcted tissues to the weight of the whole brain, is used to evaluate the degree of cerebral ischemic injury in rats. […] Table 12 Cerebral infarct size and cerebral infarction inhibition rate of experimental animals
# [2] = system: Middle cerebral artery occlusion (MCAO) models of SD rata; assay: Rat MCAO model, 28-day dosing, novel object recognition test; format: in vivo, SD rats; conditions: test on D27, Mean±SD
# Method: Middle cerebral artery occlusion (MCAO) models of SD rata were constructed by using the suture occlusion method. The rats were administered with the test compound for 28 consecutive days. The pharmacodynamic evaluation on the test compound for cerebral stroke was obtained based on general observation and neurobehavioral assessment. […] The ECA was ligated. The ICA was temporarily occluded. Sutures were threaded at both the proximal end and the distal end of CCA. The distal end was securely ligated, and a loosely tied knot was placed at the proximal end. A small incision was made on the CCA between these two sutures. […] The threading was halted temporarily when reaching the artery clamp of ICA. The pre-ligation suture was further tightened. The artery clamp blocking the blood flow in the ICA was removed, allowing the suture occlusion to be advanced into the ICA until it entered the intracranial region. […] The insertion was stopped at the moment, and the time was recorded. The artery clamp on the CCA was removed and the incision was closed after no active bleeding was observed. The ischemic rats were placed at room temperature to keep their body temperature at 37°C, and anesthesia induction could be carried out 120min later. The suture was slowly and gradually withdrawn under anesthesia until the proximal end retracted into the ECA, thereby initiating reperfusion of the middle cerebral artery. Animals received the designated dosage immediately (within 10 min) after reperfusion. This dosing regimen continued once daily for a duration of 28 days, with the day of operation being defined as D1 (Day 0). […] After the completion of the 28-day dosing period, all surviving animals in the study were euthanized, and their brains were rapidly collected for pathological analysis. […] Table 8 Results of Grid Walking Test (2) A novel object recognition test was performed on the last day of the treatment and the novel object recognition index (NRI) of animals in each group was calculated. […] The result has shown that Compound (I) has significant effect on animals with cognitive impairment caused by stroke (see details in Table 9). Table 9 Results of novel object recognition tests
# [3] = for Total impurities: Table 4
# [4] = system: MPTP-induced Parkinson's disease model mice; assay: MPTP-induced mouse Parkinson's disease model, TH-positive fiber content in the striatum; format: in vivo, C57 mice; conditions: four weeks, mean ± SD
# [5] = system: Middle cerebral artery occlusion (MCAO) models of SD rats; assay: Rat MCAO model, single-dose administration, TTC staining infarct size; format: in vivo; conditions: 24 h; for Infarct Size (%): Mean±SD
# Method: 3: Pharmacodynamic study in Rat Middle Cerebral Artery Occlusion (MCAO) Model (Single-Dose Administration) Middle cerebral artery occlusion (MCAO) models of SD rats were constructed using the suture occlusion method to evaluate the protection effect of the compound on neurons of rats after cerebral ischemia-reperfusion. After anaesthesia induction with 3.0% isoflurane in SD rats (240-270g), the operation was performed, and the right-side neck area was dissected to reveal the right common carotid artery (CCA), external carotid artery (ECA) and internal carotid artery (ICA). The ECA was ligated. The ICA was temporarily occluded. Sutures were threaded at both the proximal end and the distal end of CCA. The distal end was securely ligated, and a loosely tied knot was placed at the proximal end. A small incision was made between the two ligatures on the CCA. A No. 4-0 suture was inserted through the incision of CCA and slowly and gently pushed into the ICA. The threading was halted temporarily when reaching the artery clamp of ICA. The pre-ligation suture was further tightened. The artery clamp blocking the blood flow in the ICA was removed, allowing the suture occlusion to be advanced into the ICA until it entered the intracranial region. […] The insertion was stopped at the moment, and the time was recorded. The artery clamp on the CCA was removed and the incision was closed after no active bleeding was observed. The ischemic rats were placed at room temperature to keep their body temperature at 37°C, and anesthesia induction could be carried out 120min later. The suture was slowly and gradually withdrawn when the rats were maintained under anesthesia, so that the proximal end of the suture returned to the ECA, thereby initiating reperfusion of the middle cerebral artery. Animals were administered for a single dose immediately after reperfusion (within 10min). 3 groups were established, namely a model control group, a Compound (I) i.v. group (30mg/kg), and a Compound (I) p.o. group (60mg/kg). Animals were euthanized 24 h after ischemia reperfusion, and the brains were rapidly taken, frozen, and dissected for TTC staining. The normal tissues were rose-red after staining, and the infarcted tissues were white. The infarct size (%) percentage, calculated as the weight of infarcted tissues to the weight of the whole brain, is used to evaluate the degree of cerebral ischemic injury in rats.
# [6] = 60mg/kg oral, 7 daily doses, 7 days after reperfusion, Mean±SD
compound,measurement,setting,value
"CCCCC1OC(=O)c2ccccc21 (stereo not drawn) [Butylphthalide, butylphthalide, reference compound]",Cerebral infarction inhibition rate (%),[1]; [6],28.624±14.597%
same,Infarct Size (%),[1]; [6],14.241±2.912%
same,Infarct area weight,[1]; [6],0.175 ± 0.032 g
same,Sniffing time (S) Familiar object,[2]; 60mg/kg p.o. q.d.,1.60± 1.01 S
same,Sniffing time (S) Novel object,[2]; 60mg/kg p.o. q.d.,4.94± 3.60 S
(Z)-3-(1-hydroxybutenyl)benzofuran-2-one tromethamine salt [Example 10],Cerebral infarction inhibition rate (%),"[1]; rat, in vivo",26.236± 12.737% and 31.023± 11.150%
same,Infarct Size (%),"[1]; rat, in vivo",14.717±2.541 % and 13.762±2.225 %
same,Infarct area weight,"[1]; rat, in vivo",0.183 ± 0.036 g and 0.176 ± 0.030 g
same,Total impurities,[3]; 0 h,0.08
same,Total impurities,"[3]; High Humidity 75%, 10 d",0.04
same,Total impurities,"[3]; High Humidity 92.5%, 10 d",0.04
same,Total impurities,"[3]; High temperature 60°C, 10 d",0.03
same,Total impurities,"[3]; Light (packaged), 10 d",0.04
same,Total impurities,"[3]; Light (unwrapped), 10 d",0.03
same,chemical stability,"[3]; high temperature (60°C), light (unwrapped, packaged), high humidity (92.5%, 75%)",good chemical stability
same,TH-Positive Fiber Content,"[4]; high dose 20 mg/kg daily, listed as Tromethamine salt from Example 10, 20 mg/kg",709627.56±100462.19^&#
same,TH-Positive Fiber Content,"[4]; high dose 20 mg/kg daily, listed as tromethamine salt from Example 10, 20 mg/kg","709,627.56±100,462.19"
same,TH-Positive Fiber Content,"[4]; low dose 5 mg/kg daily, listed as Tromethamine salt from Example 10, 5 mg/kg",526554.39±169680.75^&
same,TH-Positive Fiber Content,"[4]; low dose 5 mg/kg daily, listed as tromethamine salt from Example 10, 5 mg/kg","526,554.39±169,680.75"
CCC/C(O)=C1/C(=O)Oc2ccccc21 [Compound (I)],Cerebral infarction inhibition rate (%),[5]; i.v. 30mg/kg single dose after reperfusion,37.1%
same,Infarct Size (%),"[5]; i.v. 30mg/kg single dose after reperfusion, 30 mg/kg",13.61±3.66 %
same,Infarct Size (%),"[5]; i.v. 30mg/kg single dose after reperfusion, listed as compound (I), 30 mg/kg",13.61±3.66%
same,Cerebral infarction inhibition rate (%),[5]; p.o. 60mg/kg single dose after reperfusion,31.2%
same,Infarct Size (%),"[5]; p.o. 60mg/kg single dose after reperfusion, 60 mg/kg",14.88±5.11 %
same,Infarct Size (%),"[5]; p.o. 60mg/kg single dose after reperfusion, listed as compound (I), 60 mg/kg",14.88±5.11%
same,Recognition index (%) Familiar object,[2]; high dose 20mg/kg p.o. q.d.,28.34± 17.06%
same,Sniffing time (S) Familiar object,[2]; high dose 20mg/kg p.o. q.d.,2.20± 1.66 S
same,Sniffing time (S) Novel object,[2]; high dose 20mg/kg p.o. q.d.,5.62± 3.60 S
same,Recognition index (%) Novel object,"[2]; high dose 20mg/kg p.o. q.d., 20 mg/kg",71.66±17.06%
same,Recognition index (%) Familiar object,[2]; low dose 6mg/kg p.o. q.d.,29.02± 22.60%
same,Sniffing time (S) Familiar object,[2]; low dose 6mg/kg p.o. q.d.,1.54± 1.10 S
same,Sniffing time (S) Novel object,[2]; low dose 6mg/kg p.o. q.d.,4.74± 3.61 S
same,Recognition index (%) Novel object,"[2]; low dose 6mg/kg p.o. q.d., 6 mg/kg",70.98±22.60%
